Source: patent publication US11299488B2, “Five membered-aminoheterocycle and 5,6-or 6,6-membered bicyclic aminoheterocyclic inhibitors of rock for the treatment of heart failure” (BRISTOL-MYERS SQUIBB COMPANY, priority 2017, dated 2022)

What follows are molecules tested against ROCK2 (Homo sapiens (Human), UniProt O75116) (assay: ROCK assay (Caliper LABCHIP peptide phosphorylation, 5 μM ATP)).
Chain of ROCK2 (O75116 whole entry, species assumed): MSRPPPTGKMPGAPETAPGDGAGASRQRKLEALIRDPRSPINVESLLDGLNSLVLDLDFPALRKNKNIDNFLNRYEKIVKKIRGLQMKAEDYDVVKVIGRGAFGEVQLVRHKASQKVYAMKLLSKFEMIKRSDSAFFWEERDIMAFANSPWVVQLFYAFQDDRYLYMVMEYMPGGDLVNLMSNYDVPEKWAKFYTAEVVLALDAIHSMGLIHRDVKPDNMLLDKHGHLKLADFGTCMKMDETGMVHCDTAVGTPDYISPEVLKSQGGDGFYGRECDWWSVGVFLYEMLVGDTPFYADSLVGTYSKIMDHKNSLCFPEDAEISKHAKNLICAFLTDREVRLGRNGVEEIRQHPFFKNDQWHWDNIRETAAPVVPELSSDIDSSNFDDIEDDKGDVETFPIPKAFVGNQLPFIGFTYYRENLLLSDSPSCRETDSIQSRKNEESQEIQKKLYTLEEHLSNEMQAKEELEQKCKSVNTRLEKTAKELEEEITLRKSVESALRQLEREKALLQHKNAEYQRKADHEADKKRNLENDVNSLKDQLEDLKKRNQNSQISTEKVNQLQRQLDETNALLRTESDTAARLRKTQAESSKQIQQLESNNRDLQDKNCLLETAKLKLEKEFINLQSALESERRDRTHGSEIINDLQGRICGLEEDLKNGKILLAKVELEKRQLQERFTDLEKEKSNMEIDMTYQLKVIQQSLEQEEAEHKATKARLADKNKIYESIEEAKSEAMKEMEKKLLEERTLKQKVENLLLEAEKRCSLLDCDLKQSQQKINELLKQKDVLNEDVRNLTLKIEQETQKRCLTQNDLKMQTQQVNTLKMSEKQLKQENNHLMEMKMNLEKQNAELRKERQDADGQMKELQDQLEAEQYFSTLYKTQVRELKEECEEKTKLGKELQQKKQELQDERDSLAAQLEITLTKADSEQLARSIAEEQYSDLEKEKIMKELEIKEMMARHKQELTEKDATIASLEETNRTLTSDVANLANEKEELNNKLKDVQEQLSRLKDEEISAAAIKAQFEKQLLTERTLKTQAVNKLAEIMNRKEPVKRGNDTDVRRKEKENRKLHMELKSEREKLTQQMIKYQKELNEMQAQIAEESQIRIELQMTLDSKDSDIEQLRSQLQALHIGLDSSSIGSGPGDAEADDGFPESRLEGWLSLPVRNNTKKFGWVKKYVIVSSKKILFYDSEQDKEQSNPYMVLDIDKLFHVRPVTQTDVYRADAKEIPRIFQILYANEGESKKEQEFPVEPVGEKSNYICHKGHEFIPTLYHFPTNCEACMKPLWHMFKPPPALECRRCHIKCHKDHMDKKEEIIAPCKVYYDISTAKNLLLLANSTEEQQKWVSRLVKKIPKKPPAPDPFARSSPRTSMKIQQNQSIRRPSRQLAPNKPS
Assay type: biochemical
Method: The effectiveness of compounds of the present invention as ROCK inhibitors can be determined in a 30 μL assay containing 20 mM HEPES, pH 7.5, 20 mM MgCl2, 0.015% Brij-35, 4 mM DTT, 5 μM ATP and 1.5 μM peptide substrate (FITC-AHA-AKRRRLSSLRA-OH) (SEQ ID No. 1). Compounds were dissolved in DMSO so that the final concentration of DMSO was <2%, and the reaction was initiated with Rho kinase variants. After incubation, the reaction was terminated by the addition of EDTA and the phosphorylated and non-phosphorylated peptides separated using a LABCHIP® 3000 Reader (Caliper Life Sciences). […] Compounds were tested in dose-response format, and the inhibition of kinase activity was calculated at each concentration of compound. The inhibition data were fit using a curve-fitting program to determine the IC50; i.e., the concentration of compound required to inhibit 50% of kinase activity. Representative Examples were tested in the ROCK assay described above and found having ROCK inhibitory activity. A range of ROCK inhibitory activity (IC50 values) of ≤50 μM (50000 nM) was observed. Table A below lists the ROCK IC50 values measured for the following examples.
For `NC(=O)c1cccnc1O[C@H]1C[C@@]2(C[C@H](Nc3nnc(-c4ccc(F)cc4)o3)C2)C1` (stereo partly drawn) [Example 17, 2-(((2S,4s,6S)-6-((5-(4-fluorophenyl)-1,3,4-oxadiazol-2-yl)amino)spiro[3.3]heptan-2-yl)oxy)nicotinamide], the IC50 was 0.07 µM. In the case of `[H][C@]1(Oc2ncccc2C(N)=O)C[C@]2(C[C@@H](Nc3ccnc(N4CCC(C(F)(F)F)CC4)n3)C2)C1` (stereo partly drawn) [Example 65, 2-(((2S,4s,6S)-6-((2-(4-(trifluoro-methyl)piperidin-1-yl)pyrimidin-4-yl)amino)spiro[3.3]heptan-2-yl)oxy) nicotinamide], the IC50 is reported as 0.964 µM. Work on `[H][C@]1(Oc2ncccc2C(N)=O)C[C@]2(C[C@@H](Nc3ccnc(N4CCCC(F)C4)n3)C2)C1` (stereo partly drawn) [Example 64, 2-(((2S,4s,6S)-6-((2-(3-fluoro-piperidin-1-yl)pyrimidin-4-yl)amino)spiro [3.3]heptan-2-yl)oxy) nicotinamide] yielded an IC50 of 0.89 µM. For `NC(=O)c1cccnc1O[C@H]1C[C@@]2(C[C@H](Nc3ncc4cc(F)ccc4n3)C2)C1` (stereo partly drawn) [Example 29, 2-(((2S,4s,6S)-6-((6-fluoro-quinazolin-2-yl)amino)spiro [3.3]heptan-2-yl)oxy) nicotinamide], the IC50 was 0.141 µM. `[H][C@]1(Oc2ncccc2C(N)=O)C[C@]2(C[C@@H](Nc3nccc(-c4cccc(C(=O)N(C)C)c4)n3)C2)C1` (stereo partly drawn) [Example 53, 2-(((2S,4s,6S)-6-((4-(3-(dimethyl-carbamoyl)phenyl)pyrimidin-2-yl)amino)spiro[3.3]heptan-2-yl)oxy) nicotinamide] showed an IC50 of 0.284 µM. `[H][C@]1(Oc2ncccc2C(N)=O)C[C@]2(C[C@@H](Nc3ccnc(-c4cccc(C#N)c4)n3)C2)C1` (stereo partly drawn) [Example 66, 2-(((2S,4s,6S)-6-((2-(3-cyanophenyl)pyrimidin-4-yl)amino)spiro[3.3]heptan-2-yl)oxy)nicotinamide] showed an IC50 of 1.07 µM. `[H][C@]1(Oc2ncccc2C(N)=O)C[C@]2(C[C@@H](Nc3nccc(-c4cccnc4)n3)C2)C1` (stereo partly drawn) [Example 51, 2-(((2S,4s,6S)-6-((4-(pyridin-3-yl)pyrimidin-2-yl)amino)spiro[3.3]heptan-2-yl)oxy) nicotinamide] showed an IC50 of 0.414 µM. `NC(=O)c1cccnc1O[C@H]1C[C@@]2(C[C@H](Nc3ncc4ccc(F)cc4n3)C2)C1` (stereo partly drawn) [Example 30, 2-(((2S,4s,6S)-6-((7-fluoro-quinazolin-2-yl)amino)spiro[3.3]heptan-2-yl)oxy) nicotinamide] showed an IC50 of 0.235 µM. With `[H][C@]1(Oc2ncccc2C(N)=O)C[C@]2(C[C@@H](Nc3ccnc(N4CC(F)(F)C4)n3)C2)C1` (stereo partly drawn) [Example 68, 2-(((2S,4s,6S)-6-((2-(3,3-difluoro-azetidin-1-yl)pyrimidin-4-yl)amino)spiro[3.3]heptan-2-yl)oxy) nicotinamide] the IC50 was 1.3 µM. “2-(((2S,4r,6S)- 6-((2- ((S)-3- fluoro- pyrrolidin- 1- yl) pyrimidin-4- yl)amino) spiro[3.3] heptan-2- yl)oxy) nicotinamide [Example 69]” showed an IC50 of 1.56 µM. In the case of `[H][C@]1(Oc2ncccc2C(N)=O)C[C@]2(C[C@@H](Nc3nccc(-c4cnn(C)c4)n3)C2)C1` (stereo partly drawn) [Example 54, 2-(((2S,4s,6S)-6-((4-(1-methyl-1H-pyrazol-4-yl)pyrimidin-2-yl)amino)spiro[3.3]heptan-2-yl)oxy) nicotinamide], the IC50 is reported as 0.874 µM. For `[H][C@]1(Oc2ncccc2C(N)=O)C[C@@]2(C[C@H](Nc3nccc(N4CC[C@H](F)C4)n3)C2)C1` (stereo partly drawn) [Example 42, 2-(((2S,4r,6S)-6-((4-((S)-3-fluoro-pyrrolidin-1-yl)pyrimidin-2-yl)amino)spiro [3.3]heptan-2-yl)oxy) nicotinamide], the IC50 was 2.03 µM. `NC(=O)c1cccnc1O[C@H]1C[C@@]2(C[C@H](Nc3nc(-c4ccccc4)cs3)C2)C1` (stereo partly drawn) [Example 13, 2-(((2S,4s,6S)-6-((4-phenylthiazol-2-yl)amino)spiro[3.3]heptan-2-yl)oxy)nicotinamide] gave an IC50 of 0.096 µM. `[H][C@]1(Oc2ncccc2C(N)=O)C[C@]2(C[C@@H](Nc3ccnc(-c4cccc(C(=O)N(C)C)c4)n3)C2)C1` (stereo partly drawn) [Example 67, 2-(((2S,4s,6S)-6-((2-(3-(dimethyl-carbamoyl)phenyl)pyrimidin-4-yl)amino)spiro[3.3]heptan-2-yl)oxy) nicotinamide] gave an IC50 of 1.17 µM. `[H][C@]1(Oc2ncccc2C(N)=O)C[C@]2(C[C@@H](Nc3ccnc(N4CCC(F)CC4)n3)C2)C1` (stereo partly drawn) [Example 63, 2-(((2S,4s,6S)-6-((2-(4-fluoro-piperidin-1-yl)pyrimidin-4-yl)amino)spiro [3.3]heptan-2-yl)oxy) nicotinamide] showed an IC50 of 0.733 µM. `[H][C@]1(Oc2ncccc2C(N)=O)C[C@]2(C[C@@H](Nc3nccc(-c4cccc(C#N)c4)n3)C2)C1` (stereo partly drawn) [Example 52, 2-(((2S,4s,6S)-6-((4-(3-cyanophenyl)pyrimidin-2-yl)amino)spiro[3.3]heptan-2-yl)oxy) nicotinamide] was tested, and the IC50 was 0.087 µM. Molecule `Cc1ccc2c(N[C@H]3C[C@]4(C3)C[C@H](Oc3ncccc3C(N)=O)C4)nccc2c1` (stereo partly drawn) [Example 31, 2-(((2S,4s, 6S)-6-((6-methyl-isoquinolin-1-yl)amino)spiro [3.3]heptan-2-yl)oxy) nicotinamide] has an IC50 of 0.047 µM. `[H][C@]1(Oc2ncccc2C(N)=O)C[C@]2(C[C@@H](Nc3nccc(N4CCC(F)(F)CC4)n3)C2)C1` (stereo partly drawn) [Example 37, 2-(((2S,4s,6S)-6-((4-(4,4-difluoro-piperidin-1-yl)pyrimidin-2-yl)amino)spiro[3.3]heptan-2-yl)oxy) nicotinamide] was tested, and the IC50 was 0.202 µM. `NC(=O)c1cccnc1O[C@H]1C[C@@]2(C[C@H](Nc3cnc4ccc(F)cc4n3)C2)C1` (stereo partly drawn) [Example 22, 2-(((2S,4s,6S)-6-((7-fluoro-quinoxalin-2-yl)amino)spiro[3.3]heptan-2-yl)oxy) nicotinamide] gave an IC50 of 0.148 µM. Molecule `[H][C@]1(Oc2ncccc2C(N)=O)C[C@]2(C[C@@H](Nc3nccc(-c4ccncc4)n3)C2)C1` (stereo partly drawn) [Example 46, 2-(((2S,4s,6S)-6-((4-(pyridin-4-yl)pyrimidin-2-yl)amino)spiro[3.3]heptan-2-yl)oxy)nicotinamide] has an IC50 of 0.557 µM. Molecule `NC(=O)c1cccnc1O[C@H]1CC2(C[C@H](Nc3nc4cc(F)c(Br)cc4s3)C2)C1` (stereo partly drawn) [Example 1, 2-(((2S,4s,6S)-6-((6-bromo-5-fluorobenzo[d]thiazol-2-yl)amino)spiro[3.3]heptan-2-yl)oxy)nicotinamide] has an IC50 of 0.547 µM. In the case of `[H][C@]1(Oc2ncccc2C(N)=O)C[C@]2(C[C@@H](Nc3nccc(N4CC(F)(F)C4)n3)C2)C1` (stereo partly drawn) [Example 39, 2-(((2S,4s,6S)-6-((4-(3,3-difluoro-azetidin-1-yl)pyrimidin-2-yl)amino)spiro[3.3]heptan-2-yl)oxy) nicotinamide], the IC50 is reported as 0.983 µM. `COc1ccc2c(N[C@H]3C[C@]4(C3)C[C@H](Oc3ncccc3C(N)=O)C4)ncnc2c1` (stereo partly drawn) [Example 25, 2-(((2S,4s,6S)-6-((7-methoxy-quinazolin-4-yl)amino)spiro[3.3]heptan-2-yl)oxy) nicotinamide] was tested, and the IC50 was 0.165 µM. With `[H][C@]1(Oc2ncccc2C(N)=O)C[C@]2(C[C@@H](Nc3nccc(-c4ccc(C#N)cc4)n3)C2)C1` (stereo partly drawn) [Example 48, 2-(((2S,4s,6S)-6-((4-(4-cyanophenyl)pyrimidin-2-yl)amino)spiro[3.3]heptan-2-yl)oxy) nicotinamide] the IC50 was 0.204 µM. `NC(=O)c1cccnc1O[C@H]1C[C@@]2(C[C@H](Nc3ncnc4ccc(F)cc34)C2)C1` (stereo partly drawn) [Example 26, 2-(((2S,4s,6S)-6-((6-fluoro-quinazolin-4-yl)amino)spiro[3.3]heptan-2-yl)oxy) nicotinamide] gave an IC50 of 0.128 µM. With `COc1ccc2c(N[C@H]3C[C@]4(C3)C[C@H](Oc3ncccc3C(N)=O)C4)nccc2c1` (stereo partly drawn) [Example 33, 2-(((2S,4s,6S)-6-((6-methoxy-isoquinolin-1-yl)amino)spiro [3.3]heptan-2-yl)oxy) nicotinamide] the IC50 was 0.017 µM. `Cn1c(N[C@H]2C[C@]3(C2)C[C@H](Oc2ncccc2C(N)=O)C3)nc2c(F)cccc21` (stereo partly drawn) [Example 14, 2-(((2S,4s,6S)-6-((4-fluoro-1-methyl-1H-benzo[d]imidazol-2-yl)amino)spiro[3.3]heptan-2-yl)oxy)nicotinamide] gave an IC50 of 0.32 µM. For `[H][C@]1(Oc2ncccc2C(N)=O)C[C@]2(C[C@@H](Nc3nccc(N4CCC(F)CC4)n3)C2)C1` (stereo partly drawn) [Example 40, 2-(((2S,4s,6S)-6-((4-(4-fluoro-piperidin-1-yl)pyrimidin-2-yl)amino)spiro [3.3]heptan-2-yl)oxy) nicotinamide], the IC50 was 0.378 µM. `[H][C@]1(Oc2ncccc2C(N)=O)C[C@]2(C[C@@H](Nc3ccnc(N4CCC(F)(F)CC4)n3)C2)C1` (stereo partly drawn) [Example 61, 2-(((2S,4s,6S)-6-((2-(4,4-difluoro-piperidin-1-yl)pyrimidin-4-yl)amino)spiro[3.3]heptan-2-yl)oxy) nicotinamide] was tested, and the IC50 was 0.334 µM. With `NC(=O)c1cccnc1O[C@H]1C[C@@]2(C[C@H](Nc3nnc(-c4ccc(F)cc4F)o3)C2)C1` (stereo partly drawn) [Example 20, 2-(((2S,4s,6S)-6-((5-(2,4-difluorophenyl)-1,3,4-oxadiazol-2-yl)amino)spiro[3.3]heptan-2-yl)oxy)nicotinamide] the IC50 was 0.537 µM. `[H][C@]1(Oc2ncccc2C(N)=O)C[C@]2(C[C@@H](Nc3nccc(N4CCC(F)(F)C4)n3)C2)C1` (stereo partly drawn) [Example 38, 2-(((2S,4s,6S)-6-((4-(3,3-difluoro-pyrrolidin-1-yl)pyrimidin-2-yl)amino)spiro[3.3]heptan-2-yl)oxy) nicotinamide] showed an IC50 of 0.388 µM.
